One data set concerns influenza A virus. To be noted: cited from earlier work.
In a further data set the test system is influenza B virus. The note with it: cited from earlier work.
A further data set concerns AIDS virus (HIV). To be noted: cited from earlier work.
In data set [1] the test system is GMK cells. Kind of data set: Cytotoxicity (HSV UV-238 strain test), microscopic.
The subject of data set [2] is HSV-1 (Miyama strain). Kind of data set: In vitro antiviral action on cells infected with HSV-1 (Miyama strain), CPE inhibition, TCID50. Type of data set: cell-based, Herpes simplex virus type 1. The note with it: read-out: Antiviral Activity (ΔTCID50); for log reduction at 5 µg/mL: 5 μg/ml; for log reduction at 25 µg/mL: 25 μg/ml.
The subject of data set [3] is GMK cells.
The subject of a further data set is HSV (UV-238 Strain). Kind of data set: Action on HSV (UV-238 strain), CPE inhibition, TCID50. Type of data set: cell-based. The note with it: read-out: Antiviral Activity (ΔTCID50); for log reduction at 1 µg/mL: 1 μg/ml; for log reduction at 5 µg/mL: 5 μg/ml; for log reduction at 25 µg/mL: 25 μg/ml.
The test system of data set [4] is vaccinia viruses (D1E strain). Kind of data set: microbe, parasite or virus in culture. Type of data set: cell-based. The note with it: Orthopoxvirus vaccinia, Vero, read-out: Antiviral Activity (ΔTCID50).
A further data set concerns HSV-1 (KOS strain). Kind of data set: microbe, parasite or virus in culture. It counts as cell-based, Herpes simplex virus type 1. The note with it: Human alphaherpesvirus 1, Vero, read-out: Antiviral Activity (ΔTCID50).
Data set [5] in a line: Acute toxicity testing, oral, mice (LD50, Litchfield-Willcoxon). To be noted: mouse, in vivo, ICR male mice, 7 days observation. An excerpt: The compounds to be tested in the form of a 2% aqueous solution of Tween 80 were orally administrated to ICR male mice (weights: 24-30 g), five for each group.
Data set [6] deals with influenza viruses (A/PR/8 strain). Kind of data set: microbe, parasite or virus in culture. Type of data set: cell-based, influenza virus A/PR/8. The note with it: unidentified influenza virus, PR/8, MDCK, read-out: Antiviral Activity (ΔTCID50).
The test system of another data set is HSV-2 (UW-268 strain). As to the kind of experiment: microbe, parasite or virus in culture. It counts as cell-based, Herpes simplex virus type 2. To be noted: Human alphaherpesvirus 2, Vero, read-out: Antiviral Activity (ΔTCID50).
Data set [7] concerns influenza viruses (A/PR/8 strain). Kind of data set: microbe, parasite or virus in culture. Type of data set: cell-based, influenza virus A/PR/8. The note with it: unidentified influenza virus, read-out: Antiviral Activity (ΔTCID50).
For data set [8], the system named is HSV-1 (Miyama strain). As to the kind of experiment: In vivo antiviral action: prolongation of life of mice infected with HSV-1. Details: species or system BALB/c male mice. The note with it: abdominal route, once a day, control 6.1 ± 0.6. An excerpt:
BALB/c male mice of three weeks old, 10 for each group, were abdominally seeded with an infectious amount, 10LD50, of HSV-1(Miyama strain). One hour later and over six days after the next day, once a day, Compound (5) referred to in Table 1 was continuously administrated to each animal via an abdominal route.

The mark [9] stands for this setting: Human alphaherpesvirus 1, 1 μg/ml, GMK cells.
Setting [10] is: Human alphaherpesvirus 1, GMK cells.

For orientation: LD50 means the dose at which mortality reaches 50%. A higher LD50 goes with a less toxic substance.

Read-outs that look alike come from different tables or passages of the source.

With `CC(N)C12CC3CC(CC(C3)C1)C2` (racemic) [remantadine], in the data set with influenza A virus, the “efficacy against influenza A virus” value is on record as “efficacious against influenza A virus”. Further, in the data set with influenza B virus, the “efficacy against influenza B virus” value is given as “not against influenza B virus”.
Consider `Cc1cn([C@H]2C[C@H](N=[N+]=[N-])[C@@H](CO)O2)c(=O)[nH]c1=O` [AZT], for which, in the data set on AIDS virus (HIV), the “effect on AIDS” value is given as “delay the development of AIDS, but cannot accelerate healing”.
Regarding `NC12CC3CC(CC(C3)C1)C2` [Amantadine], the “efficacy against influenza A virus” value in the data set with influenza A virus was “efficacious against influenza A virus”. Moreover, the “efficacy against influenza B virus” value in the data set on influenza B virus is “not against influenza B virus”.
As for `Nc1ncnc2c1ncn2[C@@H]1O[C@H](CO)[C@@H](O)[C@@H]1O` [Ara-a, reference compound], the magnitude of cytotoxicity entry in the data set with GMK cells [1] (1 μg/ml) and in the data set with GMK cells [3] (1 μg/ml) was “-” throughout. The values for the log reduction at 1 µg/mL in the data set on HSV-1 (Miyama strain) [2] (setting [9]) and in the data set with HSV (UV-238 Strain) were 1.2 and 1.1, respectively. Further, the log reduction at 5 µg/mL in the data set on HSV-1 (Miyama strain) [2] (setting [10]) amounted to 1.5; with HSV (UV-238 Strain), 1.7. Moreover, the log reduction at 25 µg/mL was determined as 2.5 with HSV-1 (Miyama strain) [2] (setting [10]) and 2.6 in the data set with HSV (UV-238 Strain).
Regarding `CC1(C)[C@@H](OC(=O)CCC(=O)O)CC[C@]2(C)[C@H]3C(=O)C=C4[C@@H]5C[C@@](C)(C(=O)O)CC[C@]5(C)CC[C@@]4(C)[C@]3(C)CC[C@@H]12` [Carbenoxolone, reference compound], in the data set with HSV-1 (Miyama strain) [2] (setting [9]), the log reduction at 1 µg/mL is 0.2. Moreover, in the data set on HSV-1 (Miyama strain) [2] (setting [10]), the log reduction at 5 µg/mL amounted to 0.3 and the log reduction at 25 µg/mL worked out at 2.4. Besides, in the data set on HSV (UV-238 Strain), the log reduction at 1 µg/mL was found to be 0.2, the log reduction at 5 µg/mL stood at 0.2 and the log reduction at 25 µg/mL came out at 2.2.
`COc1ccccc1N1CCN(C(=O)[C@@]2(C)CC[C@]3(C)CC[C@]4(C)C(=CC[C@@H]5[C@@]6(C)CC[C@H](O[C@@H]7O[C@H](CO)[C@@H](O)[C@H](O)[C@H]7O)C(C)(C)[C@@H]6CC[C@]54C)[C@@H]3C2)CC1` [Comp. Ex. 25, 1-(3β-(β-D-glucopyranosyloxy)-18β-olean-12-en-30-oyl)-4-(2-methoxyphenyl)piperazine]: the log reduction at 1 µg/mL with HSV-1 (Miyama strain) [2] (Human alphaherpesvirus 1, GMK) came to 1.86; in data set [4], 1.7; in the data set on HSV-1 (KOS strain), 2.04; in data set [6], 1.31; with HSV-2 (UW-268 strain), 1.85. For the same compound, the log reduction at 5 µg/mL in the data set on HSV-1 (Miyama strain) [2] (setting [10]) is greater than 3; in data set [4], 2.67; in the data set on HSV-1 (KOS strain), greater than 3.19; in data set [6], 1.86; in the data set on HSV-2 (UW-268 strain), 2.92. Further, the log reduction at 25 µg/mL with HSV-1 (Miyama strain) [2] (setting [10]) is greater than 3.56; in data set [4] it was 2.53; with HSV-1 (KOS strain), greater than 3.31; in [6], 2.22; in the data set with HSV-2 (UW-268 strain), greater than 3.3. Also, the LD50 at 168 h in data set [5] was greater than 1000 mg/kg. For the same compound, the magnitude of cytotoxicity entry in the data set on GMK cells [3] (1 μg/ml) is “-”; in the data set with GMK cells [3] (5 μg/ml), “-”; in the data set with GMK cells [3] (25 μg/ml), “±”.
With `O=c1[nH]cnc2c1ncn2[C@H]1CC[C@@H](CO)O1` [DDI], the “effect on AIDS” value in the data set on AIDS virus (HIV) was “delay the development of AIDS, but cannot accelerate healing”.
Consider `NC(=O)c1ncn([C@@H]2O[C@H](CO)[C@@H](O)[C@H]2O)n1` [Ribavirin, reference compound], for which the magnitude of cytotoxicity entry in the data set with MDCK cells (1 μg/ml), in the data set with MDCK cells (5 μg/ml) and with MDCK cells (20 μg/ml) was “-” in each case. In data set [7] (PR/8, 1 μg/ml, MDCK cells), the log reduction at 1 µg/mL was found to be 0.8. For the same compound, in [7] (PR/8, 5 μg/ml, MDCK cells), the log reduction at 5 µg/mL came to 1.8. The log reduction at 20 µg/mL in data set [7] (PR/8, 20 μg/ml, MDCK cells) is 3.2.
`COc1ccccc1N1CCN(C(=O)[C@@]2(C)CC[C@]3(C)CC[C@]4(C)C(=CC[C@@H]5[C@@]6(C)CC[C@H](OC(=O)/C=C\C(=O)O)C(C)(C)[C@@H]6CC[C@]54C)[C@@H]3C2)CC1` [Table 1, Comp. (5), 1-[3β-(3-carboxy-cis-propenoyloxy)-18β-olean-12-en-30-oyl]-4-(2-methoxyphenyl)piperazine]: the magnitude of cytotoxicity result with GMK cells [1] (1 μg/ml), in the data set with GMK cells [1] (5 μg/ml), in the data set on GMK cells [1] (25 μg/ml), in the data set on GMK cells [3] (1 μg/ml), with GMK cells [3] (5 μg/ml) and in the data set on GMK cells [3] (25 μg/ml) was “-” throughout. Moreover, the magnitude of cytotoxicity entry with MDCK cells is listed as “-”. Also, the log reduction at 1 µg/mL stood at 1 in the data set on HSV-1 (Miyama strain) [2] (setting [9]); 0.8 in data set [7] (PR/8, MDCK); 1.3 in the data set with HSV (UV-238 Strain). Besides, the log reduction at 5 µg/mL in the data set on HSV-1 (Miyama strain) [2] (setting [10]) was found to be 2.1; in data set [7] (PR/8, MDCK), 1.2; in the data set on HSV (UV-238 Strain), 2.2. The log reduction at 25 µg/mL was determined as 3.1 in the data set on HSV-1 (Miyama strain) [2] (setting [10]) and 2.8 in the data set with HSV (UV-238 Strain). Also, the “Mean Survival Days (average ± standard error)” value in the data set with HSV-1 (Miyama strain) [8] (5 mg/Kg) turned out to be 7.9 ± 1.1 days; in the data set with HSV-1 (Miyama strain) [8] (10 mg/Kg, p < 0.05 (t-Test)) it was 8.6 ± 0.7 days; in the data set on HSV-1 (Miyama strain) [8] (20 mg/Kg, p < 0.001 (t-Test)) it was 11.2 ± 1.1 days. For the same compound, the log reduction at 20 µg/mL in [7] (PR/8, MDCK) was determined as 2.1.
As for `COc1ccccc1N1CCN(C(=O)[C@@]2(C)CC[C@]3(C)CC[C@]4(C)C(=CC[C@@H]5[C@@]6(C)CC[C@H](O)C(C)(C)[C@@H]6CC[C@]54C)[C@@H]3C2)CC1` [Table 1, Comp. (9), 1-(3β-hydroxy-18β-olean-12-en-30-oyl)-4-(2-methoxyphenyl) piperazine], the magnitude of cytotoxicity result in the data set on GMK cells [1] (1 μg/ml) and in the data set with GMK cells [3] (1 μg/ml) was “-” each time. Moreover, the log reduction at 1 µg/mL was found to be 1.3 with HSV-1 (Miyama strain) [2] (setting [9]); 0.5 in data set [7] (PR/8, MDCK); 0.7 in the data set on HSV (UV-238 Strain). For the same compound, the log reduction at 5 µg/mL in the data set on HSV-1 (Miyama strain) [2] (setting [10]) amounted to 1.2; in [7] (PR/8, MDCK) it was 1; with HSV (UV-238 Strain) it was 1.3. Besides, the log reduction at 20 µg/mL in [7] (PR/8, MDCK) came out at 1.3. Moreover, the log reduction at 25 µg/mL in the data set on HSV (UV-238 Strain) was found to be 2.5.
Turning to `CC(C)=CCCC(C)=CCCC(C)=CCN1CCN(C(=O)[C@@]2(C)CC[C@]3(C)CC[C@]4(C)C(=CC[C@@H]5[C@@]6(C)CC[C@H](OC(=O)/C=C\C(=O)O)C(C)(C)[C@@H]6CC[C@]54C)[C@@H]3C2)CC1` [Table 1, Comp. (10)], in the data set on HSV-1 (Miyama strain) [2] (setting [9]), the log reduction at 1 µg/mL came to 0.7. In the data set with HSV-1 (Miyama strain) [2] (setting [10]), the log reduction at 5 µg/mL turned out to be 2 and the log reduction at 25 µg/mL stood at 1.9. Moreover, the magnitude of cytotoxicity result in the data set with GMK cells [3] (1 μg/ml) is recorded as “-”.
`CC1(C)[C@@H](OCC(=O)O)CC[C@]2(C)[C@H]3CC=C4[C@@H]5C[C@@](C)(C(=O)O)CC[C@]5(C)CC[C@@]4(C)[C@]3(C)CC[C@@H]12` [Table 1, Comp. (15), disodium-3β-carboxymethoxy-18β-olean-12-en-30-oate]: the log reduction at 1 µg/mL in the data set with HSV-1 (Miyama strain) [2] (setting [9]) was 0. Further, in the data set with HSV-1 (Miyama strain) [2] (setting [10]), the log reduction at 5 µg/mL worked out at 0.3 and the log reduction at 25 µg/mL amounted to 1. For the same compound, the magnitude of cytotoxicity entry in the data set with GMK cells [3] (1 μg/ml) is “-”. Moreover, the magnitude of cytotoxicity result with GMK cells [3] (5 μg/ml) is reported as “-”.
Regarding `CC1(C)[C@@H](OCCC(=O)O)CC[C@]2(C)[C@H]3CC=C4[C@@H]5C[C@@](C)(C(=O)O)CC[C@]5(C)CC[C@@]4(C)[C@]3(C)CC[C@@H]12` [Table 1, Comp. (18), disodium-3β-(2-carboxyethoxy)-18β-olean-12-en-30-oate], the log reduction at 1 µg/mL with HSV-1 (Miyama strain) [2] (setting [9]) is 0.7. Moreover, in the data set with HSV-1 (Miyama strain) [2] (setting [10]), the log reduction at 5 µg/mL came to 1.6 and the log reduction at 25 µg/mL stood at 1.2. In the data set on GMK cells [3] (1 μg/ml), the magnitude of cytotoxicity result is “-”. In addition, the magnitude of cytotoxicity result in the data set with GMK cells [3] (5 μg/ml) is listed as “-”.

(Values after patent publication US5356880A, “Glycyrrhetinic acid derivatives” (priority 1991, dated 1994).)
